From article PMC5218480 (PLoS ONE, 2017)

System: MV-4-11 cells
Assay: Gene expression microarray analysis (Affymetrix PrimeView) and GSEA
Format: cell-based, human
Set-up: RFU PODN (11730768_x_at) / Fold change /veh PODN (11730768_x_at) / RFU LINC00158 (11744669_a_at) / Fold change /veh LINC00158 (11744669_a_at) / RFU DUSP10 (11751237_a_at) / Fold change /veh DUSP10 (11751237_a_at) / RFU ID3 (11757404_x_at) / Fold change /veh ID3 (11757404_x_at) / RFU PLEKHG5 (11737974_s_at) / Fold change /veh PLEKHG5 (11737974_s_at) / RFU LRRC4B (11730491_at) / Fold change /veh LRRC4B (11730491_at) / RFU GIMAP4 (11747438_a_at) / Fold change /veh GIMAP4 (11747438_a_at) / RFU KRT8 (11758183_x_at) / Fold change /veh KRT8 (11758183_x_at) / RFU CNN1 (11734310_a_at) / Fold change /veh CNN1 (11734310_a_at) / RFU VPS37D (11726825_at) / Fold change /veh VPS37D (11726825_at) / RFU C10orf10 (11716522_x_at) / Fold change /veh C10orf10 (11716522_x_at) / RFU KIR2DL2 /// KIR2DL4 /// KIR2DL5A /// KIR2DL5B /// KIR2DS1 /// KIR2DS2 /// KIR2DS3 /// KIR2DS4 /// KIR3DL3 /// KIR3DL3 /// KIR3DS1 (11738374_at) / Fold change /veh KIR2DL2 /// KIR2DL4 /// KIR2DL5A /// KIR2DL5B /// KIR2DS1 /// KIR2DS2 /// KIR2DS3 /// KIR2DS4 /// KIR3DL3 /// KIR3DL3 /// KIR3DS1 (11738374_at) / RFU C1QL1 (11718748_at) / Fold change /veh C1QL1 (11718748_at) / RFU TMPRSS4 (11747572_a_at) / Fold change /veh TMPRSS4 (11747572_a_at) / RFU HAMP (11756126_x_at) / Fold change /veh HAMP (11756126_x_at) / RFU RNFT2 (11725882_a_at) / Fold change /veh RNFT2 (11725882_a_at) / RFU NR4A2 (11747474_a_at) / Fold change /veh NR4A2 (11747474_a_at) / RFU ABCC12 (11746883_a_at) / Fold change /veh ABCC12 (11746883_a_at) / RFU TMEM136 (11760407_x_at) / Fold change /veh TMEM136 (11760407_x_at) / RFU CLDN22 /// WWC2 (11732394_at) / Fold change /veh CLDN22 /// WWC2 (11732394_at) / RFU HLA-DPB1 (11760878_x_at) / Fold change /veh HLA-DPB1 (11760878_x_at) / RFU SPINT1 (11716480_a_at) / Fold change /veh SPINT1 (11716480_a_at) / RFU GAP43 (11754022_s_at) / Fold change /veh GAP43 (11754022_s_at) / RFU A4GNT (11735810_at) / Fold change /veh A4GNT (11735810_at) / RFU PRB3 (11715151_x_at) / Fold change /veh PRB3 (11715151_x_at) / RFU TUBB4B (11761932_at) / Fold change /veh TUBB4B (11761932_at) / RFU CAPN14 (11732068_a_at) / Fold change /veh CAPN14 (11732068_a_at) / RFU TMCC2 (11721928_a_at) / Fold change /veh TMCC2 (11721928_a_at) / RFU IRGQ (11745062_a_at) / Fold change /veh IRGQ (11745062_a_at) / RFU FAM174B (11720279_a_at) / Fold change /veh FAM174B (11720279_a_at) / RFU TMPRSS4 (11748680_a_at) / Fold change /veh TMPRSS4 (11748680_a_at) / RFU FAM212B (11763350_a_at) / Fold change /veh FAM212B (11763350_a_at) / RFU PLEKHG5 (11743358_a_at) / Fold change /veh PLEKHG5 (11743358_a_at) / RFU ZSCAN30 (11745921_a_at) / Fold change /veh ZSCAN30 (11745921_a_at) / RFU CMKLR1 (11741424_a_at) / Fold change /veh CMKLR1 (11741424_a_at) / RFU LOC101060620 /// MAPK8IP1 (11723275_at) / Fold change /veh LOC101060620 /// MAPK8IP1 (11723275_at) / RFU SPTSSB (11747773_x_at) / Fold change /veh SPTSSB (11747773_x_at) / RFU PRSS12 (11739890_at) / Fold change /veh PRSS12 (11739890_at) / RFU BIN1 (11741810_x_at) / Fold change /veh BIN1 (11741810_x_at) / RFU WNT11 (11732464_a_at) / Fold change /veh WNT11 (11732464_a_at) / RFU C10orf10 (11716521_a_at) / Fold change /veh C10orf10 (11716521_a_at) / RFU C5orf56 (11738089_at) / Fold change /veh C5orf56 (11738089_at) / RFU CYB561 (11721691_x_at) / Fold change /veh CYB561 (11721691_x_at) / RFU ANKRD19P (11752326_a_at) / Fold change /veh ANKRD19P (11752326_a_at) / RFU OR2T12 /// OR2T33 /// OR2T8 (11738714_s_at) / Fold change /veh OR2T12 /// OR2T33 /// OR2T8 (11738714_s_at) / RFU VCAN (11748164_a_at) / Fold change /veh VCAN (11748164_a_at) / RFU JSRP1 (11732532_at) / Fold change /veh JSRP1 (11732532_at) / RFU KRTAP10-11 (11738290_x_at) / Fold change /veh KRTAP10-11 (11738290_x_at) / RFU MYO3A (11730013_a_at) / Fold change /veh MYO3A (11730013_a_at) / RFU EBF3 (11725865_a_at) / Fold change /veh EBF3 (11725865_a_at) / RFU CAMK2N1 (11719241_x_at) / Fold change /veh CAMK2N1 (11719241_x_at) / RFU C5orf56 (11738088_a_at) / Fold change /veh C5orf56 (11738088_a_at) / RFU OLFML3 (11715873_a_at) / Fold change /veh OLFML3 (11715873_a_at) / RFU LOC100653217 /// NTM (11731650_a_at) / Fold change /veh LOC100653217 /// NTM (11731650_a_at) / RFU MAPK11 (11762145_a_at) / Fold change /veh MAPK11 (11762145_a_at) / RFU FIZ1 (11724087_x_at) / Fold change /veh FIZ1 (11724087_x_at) / RFU OASL (11726364_x_at) / Fold change /veh OASL (11726364_x_at) / RFU SOX15 (11748057_x_at) / Fold change /veh SOX15 (11748057_x_at) / RFU CD79A (11719716_a_at) / Fold change /veh CD79A (11719716_a_at) / RFU HIST1H1D (11736915_at) / Fold change /veh HIST1H1D (11736915_at) / RFU CASKIN2 (11723855_a_at) / Fold change /veh CASKIN2 (11723855_a_at) / RFU LOC730098 (11760151_x_at) / Fold change /veh LOC730098 (11760151_x_at) / RFU OR4N2 (11742367_at) / Fold change /veh OR4N2 (11742367_at) / RFU PRRT2 (11749266_a_at) / Fold change /veh PRRT2 (11749266_a_at) / RFU SNX32 (11753110_a_at) / Fold change /veh SNX32 (11753110_a_at) / RFU CDHR5 (11726645_a_at) / Fold change /veh CDHR5 (11726645_a_at) / RFU RCAN1 (11760418_a_at) / Fold change /veh RCAN1 (11760418_a_at) / RFU FAM167A (11723789_a_at) / Fold change /veh FAM167A (11723789_a_at) / RFU FAM26E (11764081_at) / Fold change /veh FAM26E (11764081_at) / RFU ISYNA1 (11749810_s_at) / Fold change /veh ISYNA1 (11749810_s_at) / RFU ACY1 (11761880_at) / Fold change /veh ACY1 (11761880_at) / RFU 11764098_at / Fold change /veh 11764098_at / RFU SAMD14 (11745864_x_at) / Fold change /veh SAMD14 (11745864_x_at) / RFU NPB (11741838_a_at) / Fold change /veh NPB (11741838_a_at) / RFU TMPRSS6 (11731388_a_at) / Fold change /veh TMPRSS6 (11731388_a_at) / RFU KRTAP10-2 (11738614_at) / Fold change /veh KRTAP10-2 (11738614_at) / RFU ARHGAP8 /// PRR5-ARHGAP8 (11727945_x_at) / Fold change /veh ARHGAP8 /// PRR5-ARHGAP8 (11727945_x_at) / RFU KRTAP5-7 /// NADSYN1 (11734609_at) / Fold change /veh KRTAP5-7 /// NADSYN1 (11734609_at) / RFU RASL12 (11751679_a_at) / Fold change /veh RASL12 (11751679_a_at) / RFU CDKN2B (11736163_a_at) / Fold change /veh CDKN2B (11736163_a_at) / RFU PRF1 (11729649_at) / Fold change /veh PRF1 (11729649_at) / RFU, ZNF638 /// ZNF638-IT1 / Fold change vs veh, ZNF638 /// ZNF638-IT1 / RFU, PANK3 / Fold change vs veh, PANK3 / RFU, SH3YL1 / Fold change vs veh, SH3YL1 / RFU, ZEB2 / Fold change vs veh, ZEB2 / RFU, NRIP1 / Fold change vs veh, NRIP1 / RFU, PTTG1IP / Fold change vs veh, PTTG1IP / RFU, CAPN2 / Fold change vs veh, CAPN2 / RFU, MED14 / Fold change vs veh, MED14 / RFU, SNORA58 / Fold change vs veh, SNORA58 / RFU, C1orf63 / Fold change vs veh, C1orf63 / RFU, LRRFIP1 / Fold change vs veh, LRRFIP1 / RFU, NDUFAF7 / Fold change vs veh, NDUFAF7 / RFU, SLC12A2 / Fold change vs veh, SLC12A2 / RFU, IBTK / Fold change vs veh, IBTK / RFU, ESF1 / Fold change vs veh, ESF1 / Fold change vs veh, TMEM50B / RFU, TAOK1 / Fold change vs veh, TAOK1 / RFU, ACBD3 / Fold change vs veh, ACBD3 / RFU, TMA16 / Fold change vs veh, TMA16 / RFU, RWDD3 / Fold change vs veh, RWDD3 / RFU, BCAT1 / Fold change vs veh, BCAT1 / RFU, EDEM3 / Fold change vs veh, EDEM3 / RFU, TMEM33 / Fold change vs veh, TMEM33 / RFU, WDR75 / Fold change vs veh, WDR75 / RFU, AHCTF1 / Fold change vs veh, AHCTF1 / RFU, TFRC / Fold change vs veh, TFRC / RFU, ZDHHC17 / Fold change vs veh, ZDHHC17 / RFU, NOM1 / Fold change vs veh, NOM1 / RFU, ARL8B / Fold change vs veh, ARL8B / RFU, ZBTB11 / Fold change vs veh, ZBTB11 / RFU, TAMM41 / Fold change vs veh, TAMM41 / RFU, KIAA1704 /// LOC100996395 / Fold change vs veh, KIAA1704 /// LOC100996395 / RFU, ING1 / Fold change vs veh, ING1 / RFU, TRMT61B / Fold change vs veh, TRMT61B / RFU, FUBP3 / Fold change vs veh, FUBP3 / RFU, TP53 / Fold change vs veh, TP53 / RFU, TNKS2 / Fold change vs veh, TNKS2 / RFU, ZFP14 / Fold change vs veh, ZFP14 / RFU, ACTR2 / Fold change vs veh, ACTR2 / RFU, PPP3R1 / Fold change vs veh, PPP3R1 / RFU, PIK3R1 / Fold change vs veh, PIK3R1 / RFU, HNRNPA1 / Fold change vs veh, HNRNPA1 / RFU, RNF170 / Fold change vs veh, RNF170 / RFU, ZNF28 / Fold change vs veh, ZNF28 / RFU, RNGTT / Fold change vs veh, RNGTT / RFU, OGT / Fold change vs veh, OGT / RFU, BRD1 / Fold change vs veh, BRD1 / RFU, MARS / Fold change vs veh, MARS / RFU, ZNF655 / Fold change vs veh, ZNF655 / RFU, FAHD1 / Fold change vs veh, FAHD1 / RFU, BDP1 / Fold change vs veh, BDP1 / RFU, LRRCC1 / Fold change vs veh, LRRCC1 / RFU, ARID1A / Fold change vs veh, ARID1A / RFU, ZNF146 / Fold change vs veh, ZNF146 / RFU, ZNF330 / Fold change vs veh, ZNF330 / RFU, GPN3 / Fold change vs veh, GPN3 / RFU, C9orf123 / Fold change vs veh, C9orf123 / RFU, N4BP2L2 / Fold change vs veh, N4BP2L2 / RFU, ARFIP1 / Fold change vs veh, ARFIP1 / RFU, FAM179B / Fold change vs veh, FAM179B / RFU, BCL10 / Fold change vs veh, BCL10 / RFU, UHRF1BP1L / Fold change vs veh, UHRF1BP1L / RFU, BET1 / Fold change vs veh, BET1 / RFU, CNOT2 / Fold change vs veh, CNOT2 / RFU, ZNF268 / Fold change vs veh, ZNF268 / Fold change vs veh, ZNF507 / RFU, DGCR2 / Fold change vs veh, DGCR2 / RFU, WDSUB1 / Fold change vs veh, WDSUB1 / Fold change vs veh, HSP90B1 /// MIR3652 / RFU, ADSS / Fold change vs veh, ADSS / RFU, GK / Fold change vs veh, GK / RFU, ZNF148 / Fold change vs veh, ZNF148 / RFU, TAF9 / Fold change vs veh, TAF9 / RFU, SLC1A5 / Fold change vs veh, SLC1A5 / RFU, SLMO2 / Fold change vs veh, SLMO2 / RFU, ABCC4 / Fold change vs veh, ABCC4 / RFU, LOC101060439 /// RAP1B / Fold change vs veh, LOC101060439 /// RAP1B / RFU, RFX7 / Fold change vs veh, RFX7 / RFU, GTPBP10 / Fold change vs veh, GTPBP10 / RFU, CNEP1R1 / Fold change vs veh, CNEP1R1 / RFU, BIVM-ERCC5 /// ERCC5 / Fold change vs veh, BIVM-ERCC5 /// ERCC5 / RFU, ILF3 / Fold change vs veh, ILF3 / RFU 11762660_at / Fold change /veh 11762660_at / RFU VCAN (11757783_s_at) / Fold change /veh VCAN (11757783_s_at) / RFU DDX43 (11728927_at) / Fold change /veh DDX43 (11728927_at) / RFU KRT8 (11758188_x_at) / Fold change /veh KRT8 (11758188_x_at) / RFU NKD1 (11759106_at) / Fold change /veh NKD1 (11759106_at) / RFU SRD5A1 (11742802_a_at) / Fold change /veh SRD5A1 (11742802_a_at) / RFU TPSAB1 /// TPSB2 (11721975_s_at) / Fold change /veh TPSAB1 /// TPSB2 (11721975_s_at) / RFU GSTM3 (11746129_a_at) / Fold change /veh GSTM3 (11746129_a_at) / RFU IL23R (11737362_x_at) / Fold change /veh IL23R (11737362_x_at) / RFU TMEM51 (11727254_a_at) / Fold change /veh TMEM51 (11727254_a_at) / RFU PIWIL2 (11732686_x_at) / Fold change /veh PIWIL2 (11732686_x_at) / RFU ORM1 (11744905_x_at) / Fold change /veh ORM1 (11744905_x_at) / RFU CCDC152 (11743942_at) / Fold change /veh CCDC152 (11743942_at) / RFU ECM1 (11717891_a_at) / Fold change /veh ECM1 (11717891_a_at) / RFU IL23R (11748794_a_at) / Fold change /veh IL23R (11748794_a_at) / RFU TNFAIP8L3 (11732012_x_at) / Fold change /veh TNFAIP8L3 (11732012_x_at) / RFU MBOAT4 (11741988_at) / Fold change /veh MBOAT4 (11741988_at) / RFU 11764193_at / Fold change /veh 11764193_at / RFU TMEM53 (11763286_at) / Fold change /veh TMEM53 (11763286_at) / RFU MAGEB2 (11727129_at) / Fold change /veh MAGEB2 (11727129_at) / RFU TMEM200A (11744735_a_at) / Fold change /veh TMEM200A (11744735_a_at) / RFU CCDC152 (11751479_a_at) / Fold change /veh CCDC152 (11751479_a_at) / RFU FAM211A (11726209_a_at) / Fold change /veh FAM211A (11726209_a_at) / RFU RGS16 (11746705_a_at) / Fold change /veh RGS16 (11746705_a_at) / RFU VCAN (11755009_s_at) / Fold change /veh VCAN (11755009_s_at) / RFU RHOB (11743442_s_at) / Fold change /veh RHOB (11743442_s_at) / RFU RGS16 (11720943_a_at) / Fold change /veh RGS16 (11720943_a_at) / RFU RGS16 (11720944_at) / Fold change /veh RGS16 (11720944_at) / RFU, VPS4B / Fold change vs veh, VPS4B / RFU, CREB1 / Fold change vs veh, CREB1 / RFU, DNAJC13 / Fold change vs veh, DNAJC13 / RFU, GNAQ / Fold change vs veh, GNAQ / RFU, CDK5R1 / Fold change vs veh, CDK5R1 / RFU, ZRANB3 / Fold change vs veh, ZRANB3 / RFU, CUL4A / Fold change vs veh, CUL4A / RFU, CCNY / Fold change vs veh, CCNY / RFU, UFL1 / Fold change vs veh, UFL1 / RFU, COG3 / Fold change vs veh, COG3 / RFU, DIAPH2 / Fold change vs veh, DIAPH2 / RFU, SKA2 / Fold change vs veh, SKA2 / RFU, AFF3 / Fold change vs veh, AFF3 / RFU, LMF1 / Fold change vs veh, LMF1 / RFU, IPO11 / Fold change vs veh, IPO11 / RFU, DFFB / Fold change vs veh, DFFB / RFU, FOXP1 / Fold change vs veh, FOXP1 / RFU, CARD8 / Fold change vs veh, CARD8 / RFU, STRN3 / Fold change vs veh, STRN3 / RFU, ADK / Fold change vs veh, ADK / RFU, RASSF2 / Fold change vs veh, RASSF2 / RFU, WIPF1 / Fold change vs veh, WIPF1 / RFU, LARP1B / Fold change vs veh, LARP1B / RFU, RASA1 / Fold change vs veh, RASA1 / RFU, RB1 / Fold change vs veh, RB1 / RFU, PPFIA1 / Fold change vs veh, PPFIA1 / RFU, MAT2A / Fold change vs veh, MAT2A / RFU, CCT5 / Fold change vs veh, CCT5 / RFU, WDR92 / Fold change vs veh, WDR92 / RFU, CUX1 / Fold change vs veh, CUX1 / RFU, TTC7A / Fold change vs veh, TTC7A / RFU, TMEM135 / Fold change vs veh, TMEM135 / RFU, DEPTOR / Fold change vs veh, DEPTOR / RFU, CPM / Fold change vs veh, CPM / RFU, DNAJB6 / Fold change vs veh, DNAJB6 / RFU, CACNA2D3 / Fold change vs veh, CACNA2D3 / RFU, DTX4 / Fold change vs veh, DTX4 / RFU, TFCP2 / Fold change vs veh, TFCP2 / RFU, GMCL1 /// GMCL1P1 / Fold change vs veh, GMCL1 /// GMCL1P1 / RFU, AEBP2 / Fold change vs veh, AEBP2 / RFU, SNHG1 /// SNORD22 /// SNORD25 /// SNORD26 /// SNORD27 /// SNORD28 /// SNORD29 /// SNORD31 / Fold change vs veh, SNHG1 /// SNORD22 /// SNORD25 /// SNORD26 /// SNORD27 /// SNORD28 /// SNORD29 /// SNORD31 / Fold change (Aza/veh), C12orf56 (ProbeSet 11735607_a_at) / Fold change (ACY-1035/veh), C12orf56 (ProbeSet 11735607_a_at) / Fold change (Aza/veh), FGFR1OP (ProbeSet 11751329_s_at) / Fold change (ACY-1035/veh), FGFR1OP (ProbeSet 11751329_s_at) / Fold change (Aza/veh), VPS36 (ProbeSet 11739960_a_at) / Fold change (ACY-1035/veh), VPS36 (ProbeSet 11739960_a_at) / RFU SYPL1 (11715823_x_at) / Fold change /veh SYPL1 (11715823_x_at) / RFU IGFBP7 (11715501_s_at) / Fold change /veh IGFBP7 (11715501_s_at) / RFU REEP3 (11722064_at) / Fold change /veh REEP3 (11722064_at) / RFU IGLL1 (11728026_x_at) / Fold change /veh IGLL1 (11728026_x_at): dose or concentration left out as unconfirmed
Settings: ProbeSet 11750457_a_at; LIST B

Nc1ccc(-c2cccs2)cc1NC(=O)c1ccc2c(c1)cc(C1CC1)n2CCN1CCOCC1 [ACY-1035] was tested, and the “RFU, GTPBP10” value was 30.83 RFU.
